Counter-ions that a name gives are not always drawn.
Legend:
NHE3 [1] = biological target: T1, NHE3 (Homo sapiens, UniProt P48764); experiment: Cell-based assay of NHE-3 activity (persistent inhibition), human; conditions: human Persistence, 60 min incubation then washout
T1 construct: expressed in transfected cells
T1 sequence (P48764 26-834): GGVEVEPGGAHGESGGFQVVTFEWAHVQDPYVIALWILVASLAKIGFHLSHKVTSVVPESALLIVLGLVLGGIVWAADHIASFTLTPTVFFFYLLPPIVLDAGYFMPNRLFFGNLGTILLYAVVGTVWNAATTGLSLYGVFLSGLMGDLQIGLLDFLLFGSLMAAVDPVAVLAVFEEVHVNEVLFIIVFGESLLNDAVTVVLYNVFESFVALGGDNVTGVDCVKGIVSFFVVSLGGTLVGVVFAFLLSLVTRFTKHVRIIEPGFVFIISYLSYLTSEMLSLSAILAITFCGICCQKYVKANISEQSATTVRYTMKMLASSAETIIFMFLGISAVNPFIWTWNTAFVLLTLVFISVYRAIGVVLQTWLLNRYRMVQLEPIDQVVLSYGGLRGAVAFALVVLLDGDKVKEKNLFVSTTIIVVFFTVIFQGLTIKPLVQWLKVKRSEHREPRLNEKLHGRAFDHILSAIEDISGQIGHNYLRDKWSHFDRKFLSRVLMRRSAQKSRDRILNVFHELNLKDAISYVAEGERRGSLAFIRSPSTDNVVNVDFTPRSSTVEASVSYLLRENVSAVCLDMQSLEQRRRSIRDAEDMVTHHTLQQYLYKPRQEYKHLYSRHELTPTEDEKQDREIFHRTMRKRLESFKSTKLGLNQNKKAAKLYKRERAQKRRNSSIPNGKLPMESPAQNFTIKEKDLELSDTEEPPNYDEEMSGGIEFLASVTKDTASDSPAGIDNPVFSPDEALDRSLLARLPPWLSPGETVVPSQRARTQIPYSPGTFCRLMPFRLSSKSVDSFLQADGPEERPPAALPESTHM
T1 sequence (Q99653 2-195 partner limits assumed): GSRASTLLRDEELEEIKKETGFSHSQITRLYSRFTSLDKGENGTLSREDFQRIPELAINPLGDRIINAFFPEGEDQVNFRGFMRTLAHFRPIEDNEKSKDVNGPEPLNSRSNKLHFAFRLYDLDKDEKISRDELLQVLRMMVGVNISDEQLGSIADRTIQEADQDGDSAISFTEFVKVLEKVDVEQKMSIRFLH
How it was run: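 PS120 fibroblasts expressing human NHE3 with NHERF2 exposed to 0-30 μM compound for 60 min at RT, then washed out; cells acid-loaded by NH4Cl prepulse with BCECF-AM and Na+-free buffer. Na+-driven pH recovery started 10 min post-washout; initial rate of BCECF ratio change (FLIPR) taken as activity.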

NHE3 [2] = biological target: T1, NHE3; experiment: Cell-based assay of NHE-3 activity (pre-incubation inhibition), human; conditions: human Preincubation; for pIC50: 0-30 μM test compound
How it was run: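 PS120 fibroblasts stably expressing human NHE3 and NHERF2, loaded 30 min at 37 °C with 5 μM BCECF-AM in NH4Cl buffer, then acidified 10 min at room temperature in Na+-free buffer with 0–30 μM compound. Initial rate of BCECF fluorescence ratio change (FLIPR) per minute taken as Na+/H+ activity.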

% inhibition (NHE3 [1])	IC50 (NHE3 [1])	% inhibition (NHE3 [2])	pIC50 (NHE3 [2])	pIC50 (NHE3 [1])	SMILES
C (>70%)	0.1 to 1 µM	C (>70%)	C (NHE3 pIC50 > 7)	–	Cc1cc(S(=O)(=O)NCCOCCOCCNC(=O)NCCCCNC(=O)NCCOCCOCCNS(=O)(=O)c2cc(C)c(O[C@H]3c4cc(Cl)cc(Cl)c4C[C@@H]3N3CCC[C@@H](N)C3)cc2C)c(C)cc1O[C@H]1c2cc(Cl)cc(Cl)c2C[C@@H]1N1CCC[C@@H](N)C1 [Example 81, 3-[2-(2-[2-[(4-[[(1S,2S)-2-[(3R)-3-Aminopiperidin-1-yl]-4,6-dichloro-2,3-dihydro-1H-inden-1-yl]oxy]-2,5-dimethylbenzene)sulfonamido]ethoxy]ethoxy)ethyl]-1-[4-([[2-(2-[2-[(4-[[(1S,2S)-2-[(3R)-3-aminopiperidin-1-yl]-4,6-dichloro-2,3-dihydro-1H-inden-1-yl]oxy]-2,5-dimethylbenzene)sulfonamido]ethoxy]ethoxy)ethyl]carbamoyl]amino)butyl]urea]
C (>70%)	0.1 to 1 µM	B (40-70%)	C (NHE3 pIC50 > 7)	–	Cc1cc(S(=O)(=O)NCCOCCOCCNC(=O)NCCCCNC(=O)NCCOCCOCCNS(=O)(=O)c2cc(C)c(O[C@H]3c4cc(Cl)cc(Cl)c4C[C@@H]3N(C)C)cc2C)c(C)cc1O[C@H]1c2cc(Cl)cc(Cl)c2C[C@@H]1N(C)C [Example 82, 3-[2-(2-[2-[(4-[[(1S,2S)-4,6-Dichloro-2-(dimethylamino)-2,3-dihydro-1H-inden-1-yl]oxy]-2,5-dimethylbenzene)sulfonamido]ethoxy]ethoxy)ethyl]-[4-([[2-(2-[2-[(4-[[(1S,2S)-4,6-dichloro-2-(dimethylamino)-2,3-dihydro-1H-inden-1-yl]oxy]-2,5-dimethylbenzene)sulfonamido]ethoxy]ethoxy)ethyl]carbamoyl]amino)butyl]urea]
C (>70%)	0.1 to 1 µM	C (>70%)	C (NHE3 pIC50 > 7)	–	Cc1cc(S(=O)(=O)NCCOCCOCCNC(=O)NCCCCNC(=O)NCCOCCOCCNS(=O)(=O)c2cc(C)c(O[C@H]3c4cc(Cl)cc(Cl)c4C[C@@H]3N3CCC[C@@H](N)C3)c(F)c2)cc(F)c1O[C@H]1c2cc(Cl)cc(Cl)c2C[C@@H]1N1CCC[C@@H](N)C1 [Example 83, 1-[2-(2-[2-[(4-[[(1S,2S)-2-[(3R)-3-Aminopiperidin-1-yl]-4,6-dichloro-2,3-dihydro-1H-inden-1-yl]oxy]-3-fluoro-5-methylbenzene)sulfonamido]ethoxy]ethoxy)ethyl]-3-[4-([[2-(2-[2-[(4-[[(1S,2S)-2-[(3R)-3-aminopiperidin-1-yl]-4,6-dichloro-2,3-dihydro-1H-inden-1-yl]oxy]-3-fluoro-5-methylbenzene)sulfonamido]ethoxy]ethoxy)ethyl]carbamoyl]amino)butyl]urea; hydrochloride]
C (>70%)	–	C (>70%)	C (NHE3 pIC50 > 7)	C (NHE3 pIC50 > 7)	Cc1cc(S(=O)(=O)NCCOCCOCCNC(=O)NCCCCNC(=O)NCCOCCOCCNS(=O)(=O)c2cc(C)c(O[C@H]3c4cc(Cl)cc(Cl)c4C[C@@H]3N(C)C)c(F)c2)cc(F)c1O[C@H]1c2cc(Cl)cc(Cl)c2C[C@@H]1N(C)C [Example 84, 1-[2-(2-[2-[(4-[[(1S,2S)-4,6-Dichloro-2-(dimethylamino)-2,3-dihydro-1H-inden-1-yl]oxy]-3-fluoro-5-methylbenzene)sulfonamido]ethoxy]ethoxy)ethyl]-3-[4-([[2-(2-[2-[(4-[[(1S,2S)-4,6-dichloro-2-(dimethylamino)-2,3-dihydro-1H-inden-1-yl]oxy]-3-fluoro-5-methylbenzene)sulfonamido]ethoxy]ethoxy)ethyl]carbamoyl]amino)butyl]urea]
C (>70%)	–	C (>70%)	–	–	N[C@@H]1CCCN([C@H]2Cc3c(Cl)cc(Cl)cc3[C@@H]2Oc2c(F)cc(S(=O)(=O)NCCOCCOCCNC(=O)NCCCCNC(=O)NCCOCCOCCNS(=O)(=O)c3cc(F)c(O[C@H]4c5cc(Cl)cc(Cl)c5C[C@@H]4N4CCC[C@@H](N)C4)c(F)c3)cc2F)C1 [Example 85, 3-[2-(2-[2-[(4-[[(1S,2S)-2-[(3R)-3-Aminopiperidin-1-yl]-4,6-dichloro-2,3-dihydro-1H-1-inden-1-yl]oxy]-3,5-difluorobenzene)sulfonamido]ethoxy]ethoxy)ethyl]-1-[4-([[2-(2-[2-[(4-[[(1S,2S)-2-[(3R)-3-aminopiperidin-1-yl]-4,6-dichloro-2,3-dihydro-1H-inden-1-yl]oxy]-3,5-difluorobenzene)sulfonamido]ethoxy]ethoxy)ethyl]carbamoyl]amino)butyl]urea; bis(trifluoroacetic acid)]
C (>70%)	–	C (>70%)	C (NHE3 pIC50 > 7)	C (NHE3 pIC50 > 7)	CN(C)[C@H]1Cc2c(Cl)cc(Cl)cc2[C@@H]1Oc1c(F)cc(S(=O)(=O)NCCOCCOCCNC(=O)NCCCCNC(=O)NCCOCCOCCNS(=O)(=O)c2cc(F)c(O[C@H]3c4cc(Cl)cc(Cl)c4C[C@@H]3N(C)C)c(F)c2)cc1F [Example 86]
C (>70%)	–	C (>70%)	–	–	Cc1cc(O[C@H]2c3cc(Cl)cc(Cl)c3C[C@@H]2N2CCC[C@@H](N)C2)c(F)cc1S(=O)(=O)NCCOCCOCCNC(=O)NCCCCNC(=O)NCCOCCOCCNS(=O)(=O)c1cc(F)c(O[C@H]2c3cc(Cl)cc(Cl)c3C[C@@H]2N2CCC[C@@H](N)C2)cc1C [Example 87, 3-[2-(2-[2-[(4-[[(1S,2S)-2-[(3R)-3-Aminopiperidin-1-yl]-4,6-dichloro-2,3-dihydro-1H-inden-1-yl]oxy]-5-fluoro-2-methylbenzene)sulfonamido]ethoxy]ethoxy)ethyl]-1-[4-([[2-(2-[2-[(4-[[(1S,2S)-2-[(3R)-3-aminopiperidin-1-yl]-4,6-dichloro-2,3-dihydro-1H-inden-1-yl]oxy]-5-fluoro-2-methylbenzene)sulfonamido]ethoxy]ethoxy)ethyl]carbamoyl]amino)butyl]urea; bis(trifluoroacetic acid)]
C (>70%)	–	C (>70%)	–	–	Cc1cc(S(=O)(=O)NCCOCCOCCNC(=O)NCCCCNC(=O)NCCOCCOCCNS(=O)(=O)c2cc(C)c(O[C@H]3c4cc(Cl)cc(Cl)c4C[C@@H]3N3CCC[C@@H](N)C3)cc2F)c(F)cc1O[C@H]1c2cc(Cl)cc(Cl)c2C[C@@H]1N1CCC[C@@H](N)C1 [Example 89, 3-[2-(2-[2-[(4-[[(1S,2S)-2-[(3R)-3-Aminopiperidin-1-yl]-4,6-dichloro-2,3-dihydro-1H-inden-1-yl]oxy]-2-fluoro-5-methylbenzene)sulfonamido]ethoxy]ethoxy)ethyl]-1-[4-([[2-(2-[2-[(4-[[(1S,2S)-2-[(3R)-3-aminopiperidin-1-yl]-4,6-dichloro-2,3-dihydro-1H-inden-1-yl]oxy]-2-fluoro-5-methylbenzene)sulfonamido]ethoxy]ethoxy)ethyl]carbamoyl]amino)butyl]urea; bis(trifluoroacetic acid)]
C (>70%)	0.1 to 1 µM	C (>70%)	C (NHE3 pIC50 > 7)	–	Cc1cc(S(=O)(=O)NCCOCCOCCNC(=O)NCCCCNC(=O)NCCOCCOCCNS(=O)(=O)c2cc(C)c(O[C@H]3c4cc(Cl)cc(Cl)c4C[C@@H]3N(C)C)cc2F)c(F)cc1O[C@H]1c2cc(Cl)cc(Cl)c2C[C@@H]1N(C)C [Example 90, 3-[2-(2-[2-[(4-[[(1S,2S)-4,6-Dichloro-2-(dimethylamino)-2,3-dihydro-1H-inden-1-yl]oxy]-2-fluoro-5-methylbenzene)sulfonamido]ethoxy]ethoxy)ethyl]-1-[4-([[2-(2-[2-[(4-[[(1S,2S)-4,6-dichloro-2-(dimethylamino)-2,3-dihydro-1H-inden-1-yl]oxy]-2-fluoro-5-methylbenzene)sulfonamido]ethoxy]ethoxy)ethyl]carbamoyl]amino)butyl]urea; bis(trifluoroacetic acid)]

From patent US11242337B2, “Compounds useful for treating gastrointestinal tract disorders” (Ardelyx, Inc., priority 2017, dated 2022)
